# Measured values as given in PubChem BioAssay (NCI).
#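 Method: 48-hour compound exposure of cells in 96-well plates, five concentrations, linear interpolation of endpoints. TGI denotes the concentration required for complete inhibition of growth.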
# Key:
# Experiment in all cases: NCI anticancer screen, dose series, 48 h
# 786-0 renal = test system: 786-0 renal
# A498 renal = test system: A498 renal
# A549 NSCLC = test system: A549 NSCLC
# ACHN renal = test system: ACHN renal
# CAKI-1 renal = test system: CAKI-1 renal
# DLD-1 colon = test system: DLD-1 colon
# DMS 114 small cell lung = test system: DMS 114 small cell lung
# EKVX NSCLC = test system: EKVX NSCLC
# HCC-2998 colon = test system: HCC-2998 colon
# HCT-116 colon = test system: HCT-116 colon
# HCT-15 colon = test system: HCT-15 colon
# HL-60(TB) leukemia = test system: HL-60(TB) leukemia
# HOP-18 NSCLC = test system: HOP-18 NSCLC
# HOP-62 NSCLC = test system: HOP-62 NSCLC
# HOP-92 NSCLC = test system: HOP-92 NSCLC
# IGROV1 ovarian = test system: IGROV1 ovarian
# K-562 leukemia = test system: K-562 leukemia
# KM20L2 colon = test system: KM20L2 colon
# LOX IMVI melanoma = test system: LOX IMVI melanoma
# LXFL 529 NSCLC = test system: LXFL 529 NSCLC
# M14 melanoma = test system: M14 melanoma
# MOLT-4 leukemia = test system: MOLT-4 leukemia
# NCI-H226 lung = test system: NCI-H226 lung
# NCI-H460 lung = test system: NCI-H460 lung
# NCI-H522 lung = test system: NCI-H522 lung
# OVCAR-3 ovarian = test system: OVCAR-3 ovarian
# OVCAR-4 ovarian = test system: OVCAR-4 ovarian
# OVCAR-8 ovarian = test system: OVCAR-8 ovarian
# RPMI-8226 leukemia = test system: RPMI-8226 leukemia
# RXF 393 renal = test system: RXF 393 renal
# RXF-631 renal = test system: RXF-631 renal
# SF-268 CNS = test system: SF-268 CNS
# SF-295 CNS = test system: SF-295 CNS
# SF-539 CNS = test system: SF-539 CNS
# SK-MEL-28 melanoma = test system: SK-MEL-28 melanoma
# SK-OV-3 ovarian = test system: SK-OV-3 ovarian
# SN12C renal = test system: SN12C renal
# SNB-19 CNS = test system: SNB-19 CNS
# SNB-75 CNS = test system: SNB-75 CNS
# SNB-78 CNS = test system: SNB-78 CNS
# SR leukemia = test system: SR leukemia
# SW-620 colon = test system: SW-620 colon
# TK-10 renal = test system: TK-10 renal
# U251 CNS = test system: U251 CNS
# UACC-257 melanoma = test system: UACC-257 melanoma
# UO-31 renal = test system: UO-31 renal
# XF 498 CNS = test system: XF 498 CNS
# CCRF-CEM leukemia = test system: CCRF-CEM leukemia
# COLO 205 colon = test system: COLO 205 colon
# DMS 273 small cell lung = test system: DMS 273 small cell lung
# HT29 colon = test system: HT29 colon
# KM12 colon = test system: KM12 colon
# M19-MEL melanoma = test system: M19-MEL melanoma
# MALME-3M melanoma = test system: MALME-3M melanoma
# NCI-H23 lung = test system: NCI-H23 lung
# OVCAR-5 ovarian = test system: OVCAR-5 ovarian
# SK-MEL-2 melanoma = test system: SK-MEL-2 melanoma
# SK-MEL-5 melanoma = test system: SK-MEL-5 melanoma
# UACC-62 melanoma = test system: UACC-62 melanoma
compound,measurement,setting,value
CNC(=S)NC(=S)N(C)C,TGI,786-0 renal,> 100 µM
same,TGI,A498 renal,> 100 µM
same,TGI,A549 NSCLC,> 100 µM
same,TGI,ACHN renal,> 100 µM
same,TGI,CAKI-1 renal,> 100 µM
same,TGI,DLD-1 colon,> 100 µM
same,TGI,DMS 114 small cell lung,> 100 µM
same,TGI,EKVX NSCLC,> 100 µM
same,TGI,HCC-2998 colon,> 100 µM
same,TGI,HCT-116 colon,> 100 µM
same,TGI,HCT-15 colon,> 100 µM
same,TGI,HL-60(TB) leukemia,20 µM
same,TGI,HOP-18 NSCLC,> 100 µM
same,TGI,HOP-62 NSCLC,> 100 µM
same,TGI,HOP-92 NSCLC,> 100 µM
same,TGI,IGROV1 ovarian,> 100 µM
same,TGI,K-562 leukemia,> 100 µM
same,TGI,KM20L2 colon,> 100 µM
same,TGI,LOX IMVI melanoma,> 100 µM
same,TGI,LXFL 529 NSCLC,> 100 µM
same,TGI,M14 melanoma,> 100 µM
same,TGI,MOLT-4 leukemia,> 100 µM
same,TGI,NCI-H226 lung,> 100 µM
same,TGI,NCI-H460 lung,> 100 µM
same,TGI,NCI-H522 lung,> 100 µM
same,TGI,OVCAR-3 ovarian,> 100 µM
same,TGI,OVCAR-4 ovarian,> 100 µM
same,TGI,OVCAR-8 ovarian,> 100 µM
same,TGI,RPMI-8226 leukemia,> 100 µM
same,TGI,RXF 393 renal,> 100 µM
same,TGI,RXF-631 renal,> 100 µM
same,TGI,SF-268 CNS,> 100 µM
same,TGI,SF-295 CNS,> 100 µM
same,TGI,SF-539 CNS,> 100 µM
same,TGI,SK-MEL-28 melanoma,> 100 µM
same,TGI,SK-OV-3 ovarian,> 100 µM
same,TGI,SN12C renal,> 100 µM
same,TGI,SNB-19 CNS,> 100 µM
same,TGI,SNB-75 CNS,> 100 µM
same,TGI,SNB-78 CNS,> 100 µM
same,TGI,SR leukemia,> 100 µM
same,TGI,SW-620 colon,> 100 µM
same,TGI,TK-10 renal,> 100 µM
same,TGI,U251 CNS,> 100 µM
same,TGI,UACC-257 melanoma,> 100 µM
same,TGI,UO-31 renal,> 100 µM
same,TGI,XF 498 CNS,> 100 µM
NC(=O)n1ncc(Cl)c(Cl)c1=O,TGI,786-0 renal,> 100 µM
same,TGI,A498 renal,> 100 µM
same,TGI,A549 NSCLC,> 100 µM
same,TGI,ACHN renal,> 100 µM
same,TGI,CAKI-1 renal,> 100 µM
same,TGI,CCRF-CEM leukemia,> 100 µM
same,TGI,COLO 205 colon,> 100 µM
same,TGI,DLD-1 colon,> 100 µM
same,TGI,DMS 114 small cell lung,> 100 µM
same,TGI,DMS 273 small cell lung,> 100 µM
same,TGI,EKVX NSCLC,> 100 µM
same,TGI,HCT-116 colon,> 100 µM
same,TGI,HCT-15 colon,> 100 µM
same,TGI,HL-60(TB) leukemia,> 100 µM
same,TGI,HOP-18 NSCLC,> 100 µM
same,TGI,HOP-62 NSCLC,> 100 µM
same,TGI,HOP-92 NSCLC,> 100 µM
same,TGI,HT29 colon,> 100 µM
same,TGI,IGROV1 ovarian,> 100 µM
same,TGI,K-562 leukemia,> 100 µM
same,TGI,KM12 colon,> 100 µM
same,TGI,KM20L2 colon,> 100 µM
same,TGI,LXFL 529 NSCLC,> 100 µM
same,TGI,M14 melanoma,> 100 µM
same,TGI,M19-MEL melanoma,> 100 µM
same,TGI,MALME-3M melanoma,> 100 µM
same,TGI,NCI-H226 lung,> 100 µM
same,TGI,NCI-H23 lung,> 100 µM
same,TGI,NCI-H460 lung,> 100 µM
same,TGI,NCI-H522 lung,> 100 µM
same,TGI,OVCAR-3 ovarian,> 100 µM
same,TGI,OVCAR-4 ovarian,> 100 µM
same,TGI,OVCAR-5 ovarian,> 100 µM
same,TGI,OVCAR-8 ovarian,> 100 µM
same,TGI,RXF-631 renal,> 100 µM
same,TGI,SF-268 CNS,> 100 µM
same,TGI,SF-295 CNS,> 100 µM
same,TGI,SF-539 CNS,> 100 µM
same,TGI,SK-MEL-2 melanoma,> 100 µM
same,TGI,SK-MEL-28 melanoma,> 100 µM
same,TGI,SK-MEL-5 melanoma,> 100 µM
same,TGI,SK-OV-3 ovarian,> 100 µM
same,TGI,SN12C renal,> 100 µM
same,TGI,SNB-19 CNS,> 100 µM
same,TGI,SNB-75 CNS,> 100 µM
same,TGI,SNB-78 CNS,> 100 µM
same,TGI,SW-620 colon,> 100 µM
same,TGI,TK-10 renal,> 100 µM
same,TGI,U251 CNS,> 100 µM
same,TGI,UACC-257 melanoma,> 100 µM
same,TGI,UACC-62 melanoma,> 100 µM
same,TGI,UO-31 renal,> 100 µM
same,TGI,XF 498 CNS,> 100 µM
CCOC(=O)N1C(=O)C2C3C=CC(C2C1=O)C1C2C(=O)N(C(=O)OCC)C(=O)C2C31 (stereo not drawn),TGI,786-0 renal,> 100 µM
same,TGI,A498 renal,> 100 µM
same,TGI,A549 NSCLC,> 100 µM
same,TGI,ACHN renal,> 100 µM
same,TGI,CAKI-1 renal,> 100 µM
same,TGI,CCRF-CEM leukemia,> 100 µM
same,TGI,COLO 205 colon,> 100 µM
same,TGI,DLD-1 colon,> 100 µM
same,TGI,DMS 114 small cell lung,> 70 µM
same,TGI,DMS 273 small cell lung,> 60.7 µM
same,TGI,EKVX NSCLC,> 100 µM
same,TGI,HCC-2998 colon,> 100 µM
same,TGI,HCT-116 colon,> 55.2 µM
same,TGI,HCT-15 colon,> 67.2 µM
same,TGI,HL-60(TB) leukemia,41.1 µM
same,TGI,HOP-18 NSCLC,> 100 µM
same,TGI,HOP-62 NSCLC,> 100 µM
same,TGI,HOP-92 NSCLC,> 100 µM
same,TGI,HT29 colon,> 100 µM
same,TGI,IGROV1 ovarian,> 100 µM
same,TGI,K-562 leukemia,> 100 µM
same,TGI,KM12 colon,> 100 µM
same,TGI,KM20L2 colon,> 100 µM
same,TGI,LOX IMVI melanoma,> 64 µM
same,TGI,LXFL 529 NSCLC,> 100 µM
same,TGI,M14 melanoma,> 100 µM
same,TGI,M19-MEL melanoma,> 100 µM
same,TGI,MALME-3M melanoma,> 100 µM
same,TGI,MOLT-4 leukemia,> 100 µM
same,TGI,NCI-H226 lung,> 100 µM
same,TGI,NCI-H23 lung,> 100 µM
same,TGI,NCI-H460 lung,> 64.4 µM
same,TGI,NCI-H522 lung,> 100 µM
same,TGI,OVCAR-3 ovarian,> 100 µM
same,TGI,OVCAR-4 ovarian,> 100 µM
same,TGI,OVCAR-5 ovarian,> 100 µM
same,TGI,OVCAR-8 ovarian,> 100 µM
same,TGI,RPMI-8226 leukemia,> 100 µM
same,TGI,RXF 393 renal,> 100 µM
same,TGI,RXF-631 renal,> 100 µM
same,TGI,SF-268 CNS,> 100 µM
same,TGI,SF-295 CNS,> 100 µM
same,TGI,SF-539 CNS,> 100 µM
same,TGI,SK-MEL-2 melanoma,> 100 µM
same,TGI,SK-MEL-28 melanoma,> 100 µM
same,TGI,SK-MEL-5 melanoma,> 100 µM
same,TGI,SK-OV-3 ovarian,> 100 µM
same,TGI,SN12C renal,> 100 µM
same,TGI,SNB-19 CNS,> 100 µM
same,TGI,SNB-75 CNS,> 100 µM
same,TGI,SNB-78 CNS,> 100 µM
same,TGI,SW-620 colon,> 59.4 µM
same,TGI,TK-10 renal,> 100 µM
same,TGI,U251 CNS,> 100 µM
same,TGI,UACC-257 melanoma,> 100 µM
same,TGI,UACC-62 melanoma,> 100 µM
same,TGI,UO-31 renal,> 100 µM
same,TGI,XF 498 CNS,> 100 µM
